Measurements published in patent publication US10590128B2, “6,7,8,9-tetrahydro-5H-pyrido[2,3-d]azepine dopamine D3 ligands” (Pfizer Inc., priority 2016, dated 2020).

Assays:
[1] = target: human dopamine D2 receptor (hD2R) (Homo sapiens, UniProt P14416); experiment: Human D2 receptor binding assay ([^3H]-Spiperone); details: CHO cells expressing hD2R, geometric mean of 2-5 determinations unless marked b (single determination)
[2] = target: human dopamine D3 receptor (hD3R) (Homo sapiens, UniProt P35462); experiment: Human D3 receptor binding assay ([^3H]-7-OH-DPAT); details: CHO cells expressing hD3R, geometric mean of 2-5 determinations unless marked b (single determination), read-out: hD3 in CHO cells Ki
Sequence of human dopamine D3 receptor (hD3R) (P35462 whole entry): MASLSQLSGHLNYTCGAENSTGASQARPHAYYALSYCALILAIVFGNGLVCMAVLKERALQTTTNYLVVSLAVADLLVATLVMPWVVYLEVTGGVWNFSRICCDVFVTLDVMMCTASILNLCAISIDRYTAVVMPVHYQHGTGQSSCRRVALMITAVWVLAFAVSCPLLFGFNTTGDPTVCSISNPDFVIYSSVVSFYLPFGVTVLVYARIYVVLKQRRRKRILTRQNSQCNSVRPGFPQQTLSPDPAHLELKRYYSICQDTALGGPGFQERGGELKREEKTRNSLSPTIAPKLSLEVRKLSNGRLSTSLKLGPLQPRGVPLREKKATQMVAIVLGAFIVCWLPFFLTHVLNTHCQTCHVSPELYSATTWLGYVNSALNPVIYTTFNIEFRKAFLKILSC

Sequence of human dopamine D2 receptor (hD2R) (P14416 whole entry): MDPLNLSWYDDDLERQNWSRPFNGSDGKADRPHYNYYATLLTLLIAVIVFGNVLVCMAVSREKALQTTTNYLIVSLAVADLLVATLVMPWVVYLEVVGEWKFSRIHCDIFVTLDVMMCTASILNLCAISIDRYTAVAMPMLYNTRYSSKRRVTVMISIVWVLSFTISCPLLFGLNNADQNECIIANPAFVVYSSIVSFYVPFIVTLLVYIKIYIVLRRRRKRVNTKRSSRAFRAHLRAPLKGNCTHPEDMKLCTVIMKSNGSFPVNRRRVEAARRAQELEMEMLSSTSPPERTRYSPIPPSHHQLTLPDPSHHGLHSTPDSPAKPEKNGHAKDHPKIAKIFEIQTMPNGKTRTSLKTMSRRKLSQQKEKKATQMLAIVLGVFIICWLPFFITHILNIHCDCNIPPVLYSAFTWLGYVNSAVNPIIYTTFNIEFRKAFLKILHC

Row | SMILES | Ki [1] [nM] | Ki [2] [nM]
1 | CCN1CCc2cc(NS(=O)(=O)c3ccc(C4(F)CCCC4)nc3)c(OC)nc2CC1 [Example 101, N-(7-ethyl-2-methoxy-6,7,8,9-tetrahydro-5H-pyrido[2,3-d]azepin-3-yl)-6-(1-fluorocyclopentyl)pyridine-3-sulfonamide] | 677 | 6.26
2 | CCN1CCc2cc(NS(=O)(=O)c3ccc(C4CCCC4)nc3)c(OC)nc2CC1 [Example 102, 6-cyclopentyl-N-(7-ethyl-2-methoxy-6,7,8,9-tetrahydro-5H-pyrido[2,3-d]azepin-3-yl)pyridine-3-sulfonamide] | 325 | 2.81
3 | COc1nc2c(cc1NS(=O)(=O)c1ccc(OC(C)(C)C)nc1)CCN(C)CC2 [Example 103, 6-tert-butoxy-N-(2-methoxy-7-methyl-6,7,8,9-tetrahydro-5H-pyrido[2,3-d]azepin-3-yl)pyridine-3-sulfonamide] | 45.2 | 1.85
4 | COc1nc2c(cc1NS(=O)(=O)c1ccc([C@@H]3CCCCO3)c(C)c1)CCN(C)CC2 [Example 105, N-(2-methoxy-7-methyl-6,7,8,9-tetrahydro-5H-pyrido[2,3-d]azepin-3-yl)-3-methyl-4-[(2S)-tetrahydro-2H-pyran-2-yl]benzenesulfonamide] | 26.1 | 0.46
5 | COc1nc2c(cc1NS(=O)(=O)c1ccc([C@@H]3CCCCO3)c(F)c1)CCN(C)CC2 [Example 111, 3-fluoro-N-(2-methoxy-7-methyl-6,7,8,9-tetrahydro-5H-pyrido[2,3-d]azepin-3-yl)-4-[(2S)-tetrahydro-2H-pyran-2-yl]benzenesulfonamide] | 100 | 2.3
6 | CCN1CCc2cc(NS(=O)(=O)c3ccc(C4(F)CCCCC4)nc3)c(OC)nc2CC1 [Example 112, N-(7-ethyl-2-methoxy-6,7,8,9-tetrahydro-5H-pyrido[2,3-d]azepin-3-yl)-6-(1-fluorocyclohexyl)pyridine-3-sulfonamide] | 45.7 | 2.36
7 | COc1nc2c(cc1NS(=O)(=O)c1ccc(C3CCC3)nc1)CCN(C)CC2 [Example 113, 6-cyclobutyl-N-(2-methoxy-7-methyl-6,7,8,9-tetrahydro-5H-pyrido[2,3-d]azepin-3-yl)pyridine-3-sulfonamide] | 143 | 3.94
8 | CCN1CCc2cc(NS(=O)(=O)c3ccc(C4CCCCC4)nc3)c(OC)nc2CC1 [Example 114, 6-cyclohexyl-N-(7-ethyl-2-methoxy-6,7,8,9-tetrahydro-5H-pyrido[2,3-d]azepin-3-yl)pyridine-3-sulfonamide] | 146 | 3.15
9 | COc1nc2c(cc1NS(=O)(=O)c1ccc(C)cc1)CCN(CCCF)CC2 [Example 115, N-[7-(3-fluoropropyl)-2-methoxy-6,7,8,9-tetrahydro-5H-pyrido[2,3-d]azepin-3-yl]-4-methylbenzenesulfonamide] | 213 | 14.8
10 | COc1nc2c(cc1NS(=O)(=O)c1cnc(OC3CCC3)nc1)CCN(C)CC2 [Example 116, 2-(cyclobutyloxy)-N-(2-methoxy-7-methyl-6,7,8,9-tetrahydro-5H-pyrido[2,3-d]azepin-3-yl)pyrimidine-5-sulfonamide] | 379 | 7.17
11 | COc1nc2c(cc1NS(=O)(=O)c1cnc(OC(C)(C)C)nc1)CCN(C)CC2 [Example 117, 2-tert-butoxy-N-(2-methoxy-7-methyl-6,7,8,9-tetrahydro-5H-pyrido[2,3-d]azepin-3-yl)pyrimidine-5-sulfonamide] | 464 | 9.93
12 | CCN1CCc2cc(NS(=O)(=O)c3ccc([C@H]4C[C@@H](OCCF)C4)cc3)c(OC)nc2CC1 [Example 119, N-(7-ethyl-2-methoxy-6,7,8,9-tetrahydro-5H-pyrido[2,3-d]azepin-3-yl)-4-[cis-3-(2-fluoroethoxy)cyclobutyl]benzenesulfonamide] | 89.9 | 2.42
13 | CCO[C@H]1C[C@@H](c2ccc(S(=O)(=O)Nc3cc4c(nc3OC)CCN(CC)CC4)cc2)C1 [Example 120, 4-(cis-3-ethoxycyclobutyl)-N-(7-ethyl-2-methoxy-6,7,8,9-tetrahydro-5H-pyrido[2,3-d]azepin-3-yl)benzenesulfonamide] | 54 | 1.28
14 | CCOC1CC(c2ccc(S(=O)(=O)Nc3cc4c(nc3OC)CCN(CC)CC4)cc2)C1 (stereo not drawn) [Example 121, 4-(trans-3-ethoxycycyclobutyl)-N-(7-ethyl-2-methoxy-6,7,8,9-tetrahydro-5H-pyrido[2,3-d]azepin-3-yl)benzenesulfonamide] | 39.8 | 2.53
15 | COc1nc2c(cc1NS(=O)(=O)c1ccc(OC3CCCC3)nc1)CCN(CCCF)CC2 [Example 122, 6-(cyclopentyloxy)-N-[7-(3-fluoropropyl)-2-methoxy-6,7,8,9-tetrahydro-5H-pyrido[2,3-d]azepin-3-yl]pyridine-3-sulfonamide] | 128 | 4.58
16 | COc1nc2c(cc1NS(=O)(=O)c1cnc(C3CCCC3)nc1)CCN(C)CC2 [Example 123, 2-cyclopentyl-N-(2-methoxy-7-methyl-6,7,8,9-tetrahydro-5H-pyrido[2,3-d]azepin-3-yl)pyrimidine-5-sulfonamide] | 164 | 12.9
17 | COc1nc2c(cc1NS(=O)(=O)c1cnc(C3CCCCC3)nc1)CCN(C)CC2 [Example 127, 2-cyclohexyl-N-(2-methoxy-7-methyl-6,7,8,9-tetrahydro-5H-pyrido[2,3-d]azepin-3-yl)pyrimidine-5-sulfonamide] | 457 | 32.2
18 | COc1nc2c(cc1NS(=O)(=O)c1ccc([C@H]3CCCCO3)nc1)CCN(C)CC2 [Example 129, N-(2-methoxy-7-methyl-6,7,8,9-tetrahydro-5H-pyrido[2,3-d]azepin-3-yl)-6-[(2R)-tetrahydro-2H-pyran-2-yl]pyridine-3-sulfonamide] | 786 | 16.7
19 | COc1nc2c(cc1NS(=O)(=O)c1ccc(CC3CCCC3)nc1)CCN(C)CC2 [Example 131, 6-(cyclopentylmethyl)-N-(2-methoxy-7-methyl-6,7,8,9-tetrahydro-5H-pyrido[2,3-d]azepin-3-yl)pyridine-3-sulfonamide] | 36.1 | 2.3
20 | CCO[C@H]1C[C@@](F)(c2ccc(S(=O)(=O)Nc3cc4c(nc3OC)CCN(C)CC4)cc2)C1 [Example 132, 4-(trans-3-ethoxy-1-fluorocyclobutyl)-N-(2-methoxy-7-methyl-6,7,8,9-tetrahydro-5H-pyrido[2,3-d]azepin-3-yl)benzenesulfonamide] | 367 | 2.23
21 | COc1nc2c(cc1NS(=O)(=O)c1ccc([C@]3(F)C[C@H](OCCF)C3)cc1)CCN(C)CC2 [Example 133, 4-[trans-1-fluoro-3-(2-fluoroethoxy)cyclobutyl]-N-(2-methoxy-7-methyl-6,7,8,9-tetrahydro-5H-pyrido[2,3-d]azepin-3-yl)benzenesulfonamide] | 428 | 2.47

These reach a lower Ki [1]. Values come first.

Row | Ki [1] [nM] | Ki [2] [nM] | SMILES
22 | 25.2 | 1.69 | COc1nc2c(cc1NS(=O)(=O)c1cnc(OC3CCCC3)c(F)c1)CCN(C)CC2 [Example 130, 6-(cyclopentyloxy)-5-fluoro-N-(2-methoxy-7-methyl-6,7,8,9-tetrahydro-5H-pyrido[2,3-d]azepin-3-yl)pyridine-3-sulfonamide]
23 | 25 | 1.27 | COc1nc2c(cc1NS(=O)(=O)c1ccc([C@H]3CCCCO3)c(F)c1)CCN(C)CC2 [Example 110, 3-fluoro-N-(2-methoxy-7-methyl-6,7,8,9-tetrahydro-5H-pyrido[2,3-d]azepin-3-yl)-4-[(2R)-tetrahydro-2H-pyran-2-yl]benzenesulfonamide]
24 | 10.9 | 1.85 | COc1nc2c(cc1NS(=O)(=O)c1cnc(OC3CCC3)c(C)c1)CCN(C)CC2 [Example 126, 6-(cyclobutyloxy)-N-(2-methoxy-7-methyl-6,7,8,9-tetrahydro-5H-pyrido[2,3-d]azepin-3-yl)-5-methylpyridine-3-sulfonamide]
25 | 7.24 | 0.46 | CCN1CCc2cc(NS(=O)(=O)c3ccc([C@H]4CCCCO4)c(C)c3)c(OC)nc2CC1 [Example 107, N-(7-ethyl-2-methoxy-6,7,8,9-tetrahydro-5H-pyrido[2,3-d]azepin-3-yl)-3-methyl-4-[(2R)-tetrahydro-2H-pyran-2-yl]benzenesulfonamide]
26 | 5.41 | 0.57 | CCCc1ccc(S(=O)(=O)Nc2cc3c(nc2OC)CCN(C)CC3)cc1 [Example 118, N-(2-methoxy-7-methyl-6,7,8,9-tetrahydro-5H-pyrido[2,3-d]azepin-3-yl)-4-propylbenzenesulfonamide]
27 | 4.07 | 1.24 | COc1nc2c(cc1NS(=O)(=O)c1ccc(OC3CCCC3)nc1C)CCN(C)CC2 [Example 128, 6-(cyclopentyloxy)-N-(2-methoxy-7-methyl-6,7,8,9-tetrahydro-5H-pyrido[2,3-d]azepin-3-yl)-2-methylpyridine-3-sulfonamide]
28 | 4.05 | 1.46 | CCN1CCc2cc(NS(=O)(=O)c3cnc(OC4CCCC4)c(C)c3)c(OC)nc2CC1 [Example 125, 6-(cyclopentyloxy)-N-(7-ethyl-2-methoxy-6,7,8,9-tetrahydro-5H-pyrido[2,3-d]azepin-3-yl)-5-methylpyridine-3-sulfonamide]
29 | 3.91 | 0.39 | COc1nc2c(cc1NS(=O)(=O)c1ccc([C@H]3CCCCO3)c(C)c1)CCN(C)CC2 [Example 104, N-(2-methoxy-7-methyl-6,7,8,9-tetrahydro-5H-pyrido[2,3-d]azepin-3-yl)-3-methyl-4-[(2R)-tetrahydro-2H-pyran-2-yl]benzenesulfonamide]
30 | 3.89 | 0.79 | COc1nc2c(cc1NS(=O)(=O)c1cnc(OC3CCCC3)c(C)c1)CCN(C)CC2 [Example 124, 6-(cyclopentyloxy)-N-(2-methoxy-7-methyl-6,7,8,9-tetrahydro-5H-pyrido[2,3-d]azepin-3-yl)-5-methylpyridine-3-sulfonamide]
